Measured values reported in PubChem BioAssay AID256 (DTP/NCI, 2004).
Toxic doses and inconclusive results are not listed. How the source made its calls: active means survival T/C of 150% or more; inactive means T/C below 125% in these data. Non-standard residues stand in square brackets, D forms with d. Residues, ends and D or L forms follow the SMILES beside them. ξ: configuration not given here. *: point of attachment. Trt = c1ccc(C(c2ccccc2)(c2ccccc2)*)cc1; Cbz = O=C(OCc1ccccc1)*; OtBu = CC(C)(C)O*; ξC = NC(CS)C(=O)O

Tested on: CD2F1 mice, L1210 leukemia ip, survival T/C
Experiment: NCI In Vivo Anticancer Drug Screen. Data for tumor model L1210 Leukemia (intraperitoneal) in CD2F1 (CDF1) mice
Conditions: higher = longer survival
Procedure, shortened: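 Ratio T/C, where T is the treated-group value and C the vehicle-dosed control value, from mice implanted with a transplantable tumor.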

[1] = endpoint: median survival time, dose: 50.0 mg/kg/injection, schedule: Q01DX005 (ip), vehicle: saline
[2] = endpoint: mean survival time, dose: 100.0 mg/kg/injection, schedule: Q01DX009 (ip), vehicle: saline with Tween-80
[3] = endpoint: mean survival time, dose: 200.0 mg/kg/injection, schedule: Q01DX009 (ip), vehicle: saline with Tween-80
[4] = endpoint: mean survival time, dose: 100.0 mg/kg/injection, schedule: Q01DX001 (ip), vehicle: saline with Tween-80
[5] = endpoint: mean survival time, dose: 100.0 mg/kg/injection, schedule: Q04DX003 (ip), vehicle: saline
[6] = endpoint: mean survival time, dose: 200.0 mg/kg/injection, schedule: Q04DX003 (ip), vehicle: saline
[7] = endpoint: mean survival time, dose: 400.0 mg/kg/injection, schedule: Q04DX003 (ip), vehicle: saline

Measured: T/C

O=C(O)C1CSCN1 (stereo not given)
inactive: endpoint: mean survival time, dose: 3.12 mg/kg/injection, schedule: Q01DX009 (ip), vehicle: saline 97 % of control | endpoint: mean survival time, dose: 3.12 mg/kg/injection, schedule: Q01DX009 (ip), vehicle: water 101 % of control | endpoint: mean survival time, dose: 6.25 mg/kg/injection, schedule: Q01DX009 (ip), vehicle: saline 98 % of control | endpoint: mean survival time, dose: 6.25 mg/kg/injection, schedule: Q01DX009 (ip), vehicle: water 93 % of control | endpoint: mean survival time, dose: 12.5 mg/kg/injection, schedule: Q01DX009 (ip), vehicle: saline 96 % of control | endpoint: mean survival time, dose: 12.5 mg/kg/injection, schedule: Q01DX009 (ip), vehicle: water 102 % of control | endpoint: mean survival time, dose: 25.0 mg/kg/injection, schedule: Q01DX009 (ip), vehicle: saline 93 % of control | endpoint: mean survival time, dose: 25.0 mg/kg/injection, schedule: Q01DX009 (ip), vehicle: water 98 % of control | endpoint: mean survival time, dose: 50.0 mg/kg/injection, schedule: Q01DX009 (ip), vehicle: saline 100 % of control | endpoint: mean survival time, dose: 50.0 mg/kg/injection, schedule: Q01DX009 (ip), vehicle: water 95 % of control | endpoint: mean survival time, dose: 100.0 mg/kg/injection, schedule: Q01DX009 (ip), vehicle: saline 95 % of control | endpoint: mean survival time, dose: 100.0 mg/kg/injection, schedule: Q01DX009 (ip), vehicle: water 95 % of control | endpoint: median survival time, dose: 3.12 mg/kg/injection, schedule: Q01DX009 (ip), vehicle: Klucel (hydroxypropylcellulose) (HPC) 93 % of control | endpoint: median survival time, dose: 6.25 mg/kg/injection, schedule: Q01DX009 (ip), vehicle: Klucel (hydroxypropylcellulose) (HPC) 95 % of control | endpoint: median survival time, dose: 12.5 mg/kg/injection, schedule: Q01DX009 (ip), vehicle: Klucel (hydroxypropylcellulose) (HPC) 102 % of control | endpoint: median survival time, dose: 15.0 mg/kg/injection, schedule: Q01DX005 (ip), vehicle: saline 108 % of control | endpoint: median survival time, dose: 25.0 mg/kg/injection, schedule: Q01DX009 (ip), vehicle: Klucel (hydroxypropylcellulose) (HPC) 91 % of control | [1] 101 % of control | endpoint: median survival time, dose: 50.0 mg/kg/injection, schedule: Q01DX009 (ip), vehicle: Klucel (hydroxypropylcellulose) (HPC) 95 % of control | endpoint: median survival time, dose: 60.0 mg/kg/injection, schedule: Q01DX005 (ip), vehicle: saline 103 % of control | endpoint: median survival time, dose: 100.0 mg/kg/injection, schedule: Q01DX009 (ip), vehicle: Klucel (hydroxypropylcellulose) (HPC) 91 % of control | endpoint: median survival time, dose: 120.0 mg/kg/injection, schedule: Q01DX005 (ip), vehicle: saline 100 % of control

CCOC(=O)Nc1cccc(Cl)c1Cl
inactive: [2] 97 % of control | [3] 102 % of control | endpoint: mean survival time, dose: 400.0 mg/kg/injection, schedule: Q01DX009 (ip), vehicle: saline with Tween-80 105 % of control

CC(=O)Nc1c(C)cccc1[N+](=O)[O-]
inactive: endpoint: mean survival time, dose: 25.0 mg/kg/injection, schedule: Q01DX001 (ip), vehicle: saline with Tween-80 101 % of control | endpoint: mean survival time, dose: 50.0 mg/kg/injection, schedule: Q01DX001 (ip), vehicle: saline with Tween-80 97 % of control | [4] 97 % of control

Brc1ccc(-c2csc3cccc[n+]23)cc1
inactive: endpoint: mean survival time, dose: 5.0 mg/kg/injection, schedule: Q04DX003 (ip), vehicle: saline with Tween-80 93 % of control | endpoint: mean survival time, dose: 10.0 mg/kg/injection, schedule: Q04DX003 (ip), vehicle: saline with Tween-80 104 % of control | endpoint: mean survival time, dose: 20.0 mg/kg/injection, schedule: Q04DX003 (ip), vehicle: saline with Tween-80 93 % of control

c1ccc(C(c2ccccc2)n2ccnc2)cc1
inactive: endpoint: mean survival time, dose: 75.0 mg/kg/injection, schedule: Q01DX001 (ip), vehicle: saline 100 % of control | endpoint: mean survival time, dose: 150.0 mg/kg/injection, schedule: Q01DX001 (ip), vehicle: saline 101 % of control

CCCc1nc(N)nc(N)n1
inactive: endpoint: mean survival time, dose: 50.0 mg/kg/injection, schedule: Q01DX009 (ip), vehicle: saline with Tween-80 104 % of control | [2] 104 % of control | [3] 116 % of control

CC1c2ccc3ccccc3c2C(=O)c2cccc(Cl)c21 (stereo not given)
inactive: endpoint: median survival time, dose: 50.0 mg/kg/injection, schedule: Q04DX002 (ip), vehicle: saline with Tween-80 100 % of control | endpoint: median survival time, dose: 100.0 mg/kg/injection, schedule: Q04DX002 (ip), vehicle: saline with Tween-80 100 % of control | endpoint: median survival time, dose: 200.0 mg/kg/injection, schedule: Q04DX002 (ip), vehicle: saline with Tween-80 111 % of control | endpoint: median survival time, dose: 400.0 mg/kg/injection, schedule: Q04DX002 (ip), vehicle: saline with Tween-80 88 % of control

COC(=O)c1csc(C2OC(CO)C(O)C2O)n1 (stereo not given)
inactive: endpoint: mean survival time, dose: 25.0 mg/kg/injection, schedule: Q01DX005 (ip), vehicle: water 107 % of control | endpoint: mean survival time, dose: 50.0 mg/kg/injection, schedule: Q01DX005 (ip), vehicle: water 103 % of control | endpoint: mean survival time, dose: 100.0 mg/kg/injection, schedule: Q01DX005 (ip), vehicle: water 101 % of control | endpoint: mean survival time, dose: 200.0 mg/kg/injection, schedule: Q01DX005 (ip), vehicle: water 101 % of control | endpoint: mean survival time, dose: 400.0 mg/kg/injection, schedule: Q01DX005 (ip), vehicle: water 102 % of control

CCC1(O)C(=O)OCc2c1cc1n(c2=O)Cc2cc3ccc(C(F)(F)F)cc3nc2-1 (stereo not given)
inactive: endpoint: median survival time, dose: 10.0 mg/kg/injection, schedule: Q04DX002 (ip), vehicle: saline with Tween-80 103 % of control | endpoint: median survival time, dose: 20.0 mg/kg/injection, schedule: Q04DX002 (ip), vehicle: saline with Tween-80 100 % of control | endpoint: median survival time, dose: 40.0 mg/kg/injection, schedule: Q04DX002 (ip), vehicle: saline with Tween-80 104 % of control | endpoint: median survival time, dose: 80.0 mg/kg/injection, schedule: Q04DX002 (ip), vehicle: saline with Tween-80 104 % of control

N#CC(C#N)=C1Cc2ccccc2C1
inactive: endpoint: mean survival time, dose: 12.5 mg/kg/injection, schedule: Q04DX003 (ip), vehicle: saline with Tween-80 93 % of control | endpoint: mean survival time, dose: 25.0 mg/kg/injection, schedule: Q04DX003 (ip), vehicle: saline with Tween-80 100 % of control | endpoint: mean survival time, dose: 50.0 mg/kg/injection, schedule: Q04DX003 (ip), vehicle: saline with Tween-80 94 % of control

CC(C)(C)OC(=O)CNC(=O)CNC(=O)CNC(=O)C(CSC(c1ccccc1)(c1ccccc1)c1ccccc1)NC(=O)OCc1ccccc1 (stereo not given) (Cbz-[ξC](Trt)GGG-OtBu)
inactive: endpoint: mean survival time, dose: 100.0 mg/kg/injection, schedule: Q04DX003 (ip), vehicle: saline with Tween-80 101 % of control | endpoint: mean survival time, dose: 200.0 mg/kg/injection, schedule: Q04DX003 (ip), vehicle: saline with Tween-80 95 % of control | endpoint: mean survival time, dose: 400.0 mg/kg/injection, schedule: Q04DX003 (ip), vehicle: saline with Tween-80 92 % of control

COc1cc(CO)ccc1Oc1ccc(C)cc1
inactive: endpoint: mean survival time, dose: 100.0 mg/kg/injection, schedule: Q01DX001 (ip), vehicle: saline 104 % of control | [5] 100 % of control | endpoint: mean survival time, dose: 200.0 mg/kg/injection, schedule: Q01DX001 (ip), vehicle: saline 107 % of control | [6] 100 % of control | endpoint: mean survival time, dose: 400.0 mg/kg/injection, schedule: Q01DX001 (ip), vehicle: saline 100 % of control | [7] 101 % of control

O=C1c2ccccc2CCC12OC2c1ccc(Cl)cc1 (stereo not given)
inactive: endpoint: mean survival time, dose: 50.0 mg/kg/injection, schedule: Q04DX003 (ip), vehicle: saline 106 % of control | [5] 101 % of control | [6] 101 % of control | [7] 98 % of control

O=P1(N(CCCl)CCCl)NCC2(O1)C1CC3CC(C1)CC2C3 (stereo not given)
inactive: endpoint: mean survival time, dose: 15.6 mg/kg/injection, schedule: Q01DX001 (ip), vehicle: distilled water + Tween-80 101 % of control | endpoint: mean survival time, dose: 31.3 mg/kg/injection, schedule: Q01DX001 (ip), vehicle: distilled water + Tween-80 96 % of control | endpoint: mean survival time, dose: 62.5 mg/kg/injection, schedule: Q01DX001 (ip), vehicle: distilled water + Tween-80 101 % of control | endpoint: mean survival time, dose: 125.0 mg/kg/injection, schedule: Q01DX001 (ip), vehicle: distilled water + Tween-80 96 % of control | endpoint: mean survival time, dose: 250.0 mg/kg/injection, schedule: Q01DX001 (ip), vehicle: distilled water + Tween-80 96 % of control | endpoint: mean survival time, dose: 500.0 mg/kg/injection, schedule: Q01DX001 (ip), vehicle: distilled water + Tween-80 91 % of control

CC1(c2ccccc2)C=CC(=O)CC1 (stereo not given)
inactive: endpoint: mean survival time, dose: 100.0 mg/kg/injection, schedule: Q04DX002 (ip), vehicle: saline with Tween-80 93 % of control | endpoint: mean survival time, dose: 200.0 mg/kg/injection, schedule: Q04DX002 (ip), vehicle: saline with Tween-80 101 % of control | endpoint: mean survival time, dose: 400.0 mg/kg/injection, schedule: Q04DX002 (ip), vehicle: saline with Tween-80 97 % of control

O=c1ccnc2cc[nH]n12
inactive: [1] 104 % of control | endpoint: median survival time, dose: 100.0 mg/kg/injection, schedule: Q01DX005 (ip), vehicle: saline 101 % of control | endpoint: median survival time, dose: 200.0 mg/kg/injection, schedule: Q01DX005 (ip), vehicle: saline 101 % of control

CN(C)C=NCCc1ccccc1
inactive: endpoint: mean survival time, dose: 50.0 mg/kg/injection, schedule: Q01DX001 (ip), vehicle: saline 97 % of control

O=C(Nc1ccc2ccccc2c1-c1c(NC(=O)c2ccccc2)ccc2ccccc12)c1ccccc1
inactive: [4] 91 % of control | endpoint: mean survival time, dose: 400.0 mg/kg/injection, schedule: Q01DX001 (ip), vehicle: saline with Tween-80 91 % of control
